Converted amounts (≈) assume the structure as drawn.
Tests used:
AIDS virus = test: Anti-AIDS viral activity: virus antigen in infected MT-4 cells by indirect fluorescent antibody method; format: cell-based; conditions: Human immunodeficiency virus 1, MT4, compound added 2 hours before virus, 10^3 to 10^4 infection units, cultured 4 days, read-out: EC50 (50% infection inhibitory concentration)
Procedure: After 0.5 ml of cell suspension prepared from MT-4 cells in 1×10^5 /ml was charged in a 24 well tray, 50 μl of a solution containing a predetermined quantity of Compound (lH) or Compound (lP) was added to the suspension. After culturing at 37° C. for 2 hours in 5% (v/v) carbon dioxide incubator, 10^3 to 10^4 infection units of AIDS virus were added and cultured for 4 days. Then, a part of the culture medium was applied onto a slide glass and immobilized with acetone, after which development of virus antigen was observed by indirect fluorescent antibody method. As the primary antibody of the fluorescent antibody method, a serum of AIDS patient was used. As its secondary antibody, FITC-labelled anti-human IgG antibody was used. Based on a proportion of the infected cells and non-infected cells where the chemical was added and where no chemical was added, a rate of infection was calculated. A concentration of the chemical and the rate of infection were plotted on semilogarithmic paper to determine 50% infection inhibitory concentration (EC50 value).

[1] = Cytotoxicity against MT-4 cells without virus (Trypane Blue staining, viable cell count); format: cell-based; conditions: human, no virus added, read-out: CC50 (50% cytotoxicity)
Procedure: Furthermore, cytotoxicity of Compound (lH) and Compound (lP) against MT-4 cells was examined without adding virus. After staining with […] Blue, viable cells were counted. Based on the count of viable cells where the chemical was added and where no chemical was added, a degree of inhibition was calculated. A concentration of the chemical and the degree of inhibition were plotted on semilogarithmic paper to determine 50% cytotoxicity (CC50 value).

SMILES | EC50 (AIDS virus) [µg/mL] | CC50 [1] [µg/mL]
Nc1nnnc2c1ncn2[C@@H]1O[C@H](CO)[C@H]1CO [Compound (1H)] | 0.035 (≈ 0.139 µM) | > 100
Nc1nnnc2c1ncn2[C@@H]1O[C@H](COP(=O)(O)O)[C@H]1CO [Compound (1P)] | 0.14 (≈ 0.421 µM) | > 100
